Results published in EP4818156A1, “SQUARIC ACID COMPOUND, PHARMACEUTICALLY ACCEPTABLE SALT OR DEUTERATED COMPOUND THEREOF, PREPARATION METHOD THEREFOR AND USE THEREOF” (Shanghai Institute of Materia Medica, Chinese Academy of …, priority 2023, dated 2025).

Assay: Photostability under continuous 808 nm laser irradiation
Assay type: physicochemical
Settings: aqueous solution, 808 nm laser at 108 mW/cm^2, 20 minutes
Protocol: Indocyanine green (ICG), an FDA-approved near-infrared dye widely used clinically, was used as a control to evaluate the photostability of compound Ia (SQ 905). ICG was dissolved in water, and compound Ia (SQ 905) was dissolved in methanol. Over a period of 25 minutes, the methanol solution of compound Ia and the aqueous solution of ICG were continuously irradiated with an 808 nm laser at 108 mW/cm^2. During this period, the fluorescence intensity was recorded using a near-infrared II camera (MARS, Artemis Intelligent Imaging, Shanghai, China). Images were recorded every minute for the first 15 minutes, and every 5 minutes thereafter to monitor the fluorescence intensity. The fluorescence intensity of the region of interest (ROI) in the captured images was quantified using ImageJ software and compared with the initial fluorescence intensity to obtain the ratio of fluorescence intensity at each time point relative to the initial intensity. The photostability curve of compound Ia was plotted using GraphPad Prism 8.0.2 software.
Accordingly, the photostability of compound Ia was evaluated in this example. The methanol solution of compound Ia and the aqueous solution of ICG were used for photostability testing.

For `CC1(C)C(/C=C/C=C/C=C/C=C2\N(CCCCS(=O)(=O)O)c3ccc4ccccc4c3C2(C)C)=[N+](CCCCS(=O)(=O)[O-])c2ccc3ccccc3c21` [ICG, Indocyanine green], the “decrease of fluorescence intensity after continuous irradiation” value was 83%.
